{"source": "patent US6214381A", "about": "“Methazolamide composition and method of use” (Effcon, Inc., priority 1998, dated 2001)", "origin": "cited, not measured here", "conditions": "background statement"}
{"compound": "CC(=O)N=c1sc(S(N)(=O)=O)nn1C", "note": "[Methazolamide, methazolamide]", "values": [{"measurement": "water solubility", "value": "water-insoluble"}]}
